Consider 1 substance from patent US9682043B2, “Method of preparation of mixed phase co-crystals with active agents” (MedCrystalForms, LLC, priority 2003, dated 2017).

This data set in a line: Intrinsic dissolution of itraconazole mixed phase co-crystals. In kind it is physicochemical. The note with it: 3% sodium lauryl sulfate 20% isopropanol:0.1 N HCl (1:1). An excerpt:
FIG. 5 is a graph showing the intrinsic dissolution rate of itraconazole mixed phase co-crystals in a 3% sodium lauryl sulfate 20% isopropanol:0.1 N HCl (1:1) media.

Regarding Itraconazole [Control (Intact API)], the “Intrinsic Dissolution Rate” value worked out at 11.1 mcg/min/cm^2.
